Test results: patent US20190374627A1, “TARGET PEPTIDES FOR CANCER THERAPY AND DIAGNOSTICS” (priority 2016, published 2019)
Square brackets hold non-standard residues; d marks the D form. Ends that are not written are not given here. Met(O) = CS(=O)CC[C@H](N)C(=O)O; pS = N[C@@H](COP(=O)(O)O)C(=O)O

Columns and labels:
[1] = system: CD8^+ T cells (PBMCs); assay: Intracellular cytokine staining (ICS) of PBMCs after 7 days of stimulation with MHC-I-pP (healthy donors, HH patients); format: cell-based, human; details: for Reactive CD8^+ T cell population, HH2: HH patient HH2; for Reactive CD8^+ T cell population, HH3: HH patient HH3; for Reactive CD8^+ T cell population, HH6: HH patient HH6; for Reactive CD8^+ T cell population, HH8: HH patient HH8; for Reactive CD8^+ T cell population, HH11: HH patient HH11; for Reactive CD8^+ T cell population, HD1: Healthy donor HD1; for Reactive CD8^+ T cell population, HD4: Healthy donor HD4; for Reactive CD8^+ T cell population, HD5: Healthy donor HD5; for Reactive CD8^+ T cell population, HH10: HH patient HH10; for Reactive CD8^+ T cell population, HD2: Healthy donor HD2; for Reactive CD8^+ T cell population, HD3: Healthy donor HD3
Summary of the method: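 PBMCs or liver lymphocytes from HLA-A*0201-positive healthy donors and hereditary hemochromatosis patients were stimulated for 7 days with HLA-A*0201-restricted phosphopeptides and no added cytokines. After exclusion of doublets and dead cells with a fixable viability dye, CD3^+CD8^+ cells were analysed by intracellular staining for IFN-γ and TNF-α, plus CD107a where needed.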

[2] = system: expanded TIL / IHL cultures; assay: ICS for MHC-I-pP reactivity of liver-derived lymphocyte cultures after unspecific rapid expansion protocol (REP); format: cell-based, human
[3] = system: expanded lymphocyte cultures from deceased donor livers, cirrhotic livers and HCC; assay: ICS for MHC-I-pP reactivity of liver-derived lymphocyte cultures after phosphopeptide-specific expansion; format: cell-based, human; details: for ppCTL response, Deceased Donor Liver Do 2 / ppCTL response, Deceased Donor Liver Do 3 / ppCTL response, Deceased Donor Liver Do 4 / ppCTL response, Deceased Donor Liver Do 6 / ppCTL response, End-stage Liver Cirrhosis IHL 11 / ppCTL response, End-stage Liver Cirrhosis IHL 12 / ppCTL response, End-stage Liver Cirrhosis IHL 13 / ppCTL response, End-stage Liver Cirrhosis IHL 15 / ppCTL response, HCC Distal HCC 1 / ppCTL response, HCC Tumor HCC 1 / ppCTL response, HCC Distal HCC 4 / ppCTL response, HCC Distal HCC 9 / ppCTL response, HCC Tumor HCC 9 / ppCTL response, HCC Distal HCC 12: pP-specifically expanded culture; for ppCTL response, HCC Distal HCC 1: HCC 1 Distal; for ppCTL response, HCC Tumor HCC 1: HCC 1 Tumor; for ppCTL response, HCC Distal HCC 4: HCC 4 Distal; for ppCTL response, HCC Distal HCC 9: HCC 9 Distal; for ppCTL response, HCC Tumor HCC 9: HCC 9 Tumor; for ppCTL response, HCC Distal HCC 12: HCC 12 Distal
[4] = system: unexpanded lymphocyte cultures (CD8^+ T cells); assay: ICS for MHC-I-pP reactivity of lymphocyte cultures without expansion (Table 23, No Expansion)

RTFsPTYGL: SYNM phosphopeptide, HLA-A*0201 (RTF[pS]PTYGL; listed as Homo sapiens)
0 (<0.25% reactive CD8^-+ T cells): Reactive CD8^+ T cell population, HH2 [1] | Reactive CD8^+ T cell population, HH3 [1] | Reactive CD8^+ T cell population, HH6 [1] | Reactive CD8^+ T cell population, HH8 [1] | Reactive CD8^+ T cell population, HH11 [1] | Reactive CD8^+ T cell population, HD1 [1] | Reactive CD8^+ T cell population, HD4 [1] | Reactive CD8^+ T cell population, HD5 [1] | Reactive CD8^+ T cells, Non-specific Expansion, Do2 [2] | Reactive CD8^+ T cells, Non-specific Expansion, Do4 [2] | Reactive CD8^+ T cells, Non-specific Expansion, HH6 [2] | Reactive CD8^+ T cells, pP-specific Expansion, Do2 [3] | Reactive CD8^+ T cells, pP-specific Expansion, Do4 [3]
1 (0.25-2.5% reactive CD8^-+ T cells): Reactive CD8^+ T cells, No Expansion, HH6 [4]
3 (5-7.5% reactive CD8^-+ T cells): Reactive CD8^+ T cells, pP-specific Expansion, HH6 [3]
1 (0.25-2.5% reactive CD8-+ T cells): ppCTL response, End-stage Liver Cirrhosis IHL 15 [3]
0 (<0.25% reactive CD8-+ T cells): ppCTL response, Deceased Donor Liver Do 2 [3] | ppCTL response, Deceased Donor Liver Do 3 [3] | ppCTL response, Deceased Donor Liver Do 4 [3] | ppCTL response, Deceased Donor Liver Do 6 [3] | ppCTL response, End-stage Liver Cirrhosis IHL 11 [3] | ppCTL response, End-stage Liver Cirrhosis IHL 12 [3] | ppCTL response, End-stage Liver Cirrhosis IHL 13 [3] | ppCTL response, HCC Distal HCC 1 [3] | ppCTL response, HCC Tumor HCC 1 [3] | ppCTL response, HCC Distal HCC 4 [3] | ppCTL response, HCC Distal HCC 9 [3] | ppCTL response, HCC Tumor HCC 9 [3] | ppCTL response, HCC Distal HCC 12 [3]

RTHsLLLLL (RTH[pS]LLLLL; listed as Homo sapiens)
0 (<0.25% reactive CD8^-+ T cells): Reactive CD8^+ T cell population, HH2 [1] | Reactive CD8^+ T cell population, HH3 [1] | Reactive CD8^+ T cell population, HH6 [1] | Reactive CD8^+ T cell population, HH8 [1] | Reactive CD8^+ T cell population, HH10 [1] | Reactive CD8^+ T cell population, HH11 [1] | Reactive CD8^+ T cell population, HD1 [1] | Reactive CD8^+ T cell population, HD2 [1] | Reactive CD8^+ T cell population, HD3 [1] | Reactive CD8^+ T cell population, HD4 [1] | Reactive CD8^+ T cell population, HD5 [1] | Reactive CD8^+ T cells, Non-specific Expansion, Do2 [2] | Reactive CD8^+ T cells, Non-specific Expansion, Do4 [2] | Reactive CD8^+ T cells, pP-specific Expansion, Do2 [3] | Reactive CD8^+ T cells, pP-specific Expansion, Do4 [3] | Reactive CD8^+ T cells, pP-specific Expansion, HH6 [3]
1 (0.25-2.5% reactive CD8^-+ T cells): Reactive CD8^+ T cells, Non-specific Expansion, HH6 [2] | Reactive CD8^+ T cells, No Expansion, HH6 [4]
0 (<0.25% reactive CD8-+ T cells): ppCTL response, Deceased Donor Liver Do 2 [3] | ppCTL response, Deceased Donor Liver Do 3 [3] | ppCTL response, Deceased Donor Liver Do 4 [3] | ppCTL response, Deceased Donor Liver Do 6 [3] | ppCTL response, End-stage Liver Cirrhosis IHL 11 [3] | ppCTL response, End-stage Liver Cirrhosis IHL 12 [3] | ppCTL response, End-stage Liver Cirrhosis IHL 13 [3] | ppCTL response, End-stage Liver Cirrhosis IHL 15 [3] | ppCTL response, HCC Distal HCC 1 [3] | ppCTL response, HCC Tumor HCC 1 [3] | ppCTL response, HCC Distal HCC 4 [3] | ppCTL response, HCC Distal HCC 9 [3] | ppCTL response, HCC Tumor HCC 9 [3] | ppCTL response, HCC Distal HCC 12 [3]
2 (2.5-5.0% reactive CD8^-+ T cells): Reactive CD8^+ T cells, No Expansion, Do4 [4]

SImsPEIQL: CIC phosphopeptide, HLA-A*0201 (SI[Met(O)][pS]PEIQL; listed as Homo sapiens)
0 (<0.25% reactive CD8-+ T cells): ppCTL response, Deceased Donor Liver Do 2 [3] | ppCTL response, Deceased Donor Liver Do 3 [3] | ppCTL response, Deceased Donor Liver Do 4 [3] | ppCTL response, Deceased Donor Liver Do 6 [3] | ppCTL response, End-stage Liver Cirrhosis IHL 11 [3] | ppCTL response, End-stage Liver Cirrhosis IHL 12 [3] | ppCTL response, End-stage Liver Cirrhosis IHL 13 [3] | ppCTL response, End-stage Liver Cirrhosis IHL 15 [3] | ppCTL response, HCC Distal HCC 1 [3] | ppCTL response, HCC Tumor HCC 1 [3] | ppCTL response, HCC Distal HCC 4 [3] | ppCTL response, HCC Distal HCC 9 [3] | ppCTL response, HCC Tumor HCC 9 [3] | ppCTL response, HCC Distal HCC 12 [3]
0 (<0.25% reactive CD8^-+ T cells): Reactive CD8^+ T cell population, HH3 [1] | Reactive CD8^+ T cell population, HH6 [1] | Reactive CD8^+ T cell population, HH8 [1] | Reactive CD8^+ T cell population, HD1 [1] | Reactive CD8^+ T cell population, HD4 [1] | Reactive CD8^+ T cell population, HD5 [1] | Reactive CD8^+ T cells, Non-specific Expansion, Do2 [2] | Reactive CD8^+ T cells, Non-specific Expansion, Do4 [2] | Reactive CD8^+ T cells, Non-specific Expansion, HH6 [2] | Reactive CD8^+ T cells, pP-specific Expansion, Do2 [3] | Reactive CD8^+ T cells, pP-specific Expansion, Do4 [3] | Reactive CD8^+ T cells, No Expansion, HH6 [4]
2 (2.5-5.0% reactive CD8^-+ T cells): Reactive CD8^+ T cells, pP-specific Expansion, HH6 [3]
1 (0.25-2.5% reactive CD8^-+ T cells): Reactive CD8^+ T cell population, HH2 [1]

SMTRsPPRV: SRSF8 phosphopeptide, HLA-A*0201 (SMTR[pS]PPRV; listed as Homo sapiens)
4 (7.5-10% reactive CD8^-+ T cells): Reactive CD8^+ T cells, No Expansion, Do4 [4]
6 (>20% reactive CD8-+ T cells): ppCTL response, End-stage Liver Cirrhosis IHL 15 [3]
0 (<0.25% reactive CD8^-+ T cells): Reactive CD8^+ T cell population, HH2 [1] | Reactive CD8^+ T cell population, HH3 [1] | Reactive CD8^+ T cell population, HH6 [1] | Reactive CD8^+ T cell population, HH8 [1] | Reactive CD8^+ T cell population, HH10 [1] | Reactive CD8^+ T cell population, HH11 [1] | Reactive CD8^+ T cell population, HD1 [1] | Reactive CD8^+ T cell population, HD2 [1] | Reactive CD8^+ T cell population, HD3 [1] | Reactive CD8^+ T cell population, HD4 [1] | Reactive CD8^+ T cell population, HD5 [1] | Reactive CD8^+ T cells, Non-specific Expansion, Do2 [2] | Reactive CD8^+ T cells, Non-specific Expansion, Do4 [2] | Reactive CD8^+ T cells, Non-specific Expansion, HH6 [2] | Reactive CD8^+ T cells, pP-specific Expansion, Do2 [3] | Reactive CD8^+ T cells, pP-specific Expansion, Do4 [3] | Reactive CD8^+ T cells, pP-specific Expansion, HH6 [3] | Reactive CD8^+ T cells, No Expansion, HH6 [4]
0 (<0.25% reactive CD8-+ T cells): ppCTL response, Deceased Donor Liver Do 3 [3] | ppCTL response, Deceased Donor Liver Do 4 [3] | ppCTL response, Deceased Donor Liver Do 6 [3] | ppCTL response, End-stage Liver Cirrhosis IHL 11 [3] | ppCTL response, End-stage Liver Cirrhosis IHL 12 [3] | ppCTL response, End-stage Liver Cirrhosis IHL 13 [3] | ppCTL response, HCC Distal HCC 1 [3] | ppCTL response, HCC Tumor HCC 1 [3] | ppCTL response, HCC Distal HCC 4 [3] | ppCTL response, HCC Distal HCC 9 [3] | ppCTL response, HCC Tumor HCC 9 [3] | ppCTL response, HCC Distal HCC 12 [3]
1 (0.25-2.5% reactive CD8-+ T cells): ppCTL response, Deceased Donor Liver Do 2 [3]
